Tested on: SEM cells
Test: cell viability relative to DMSO control; higher = less cytotoxic
Settings: 48 h
Outline: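 Library compounds in DMSO were pin-dosed into 1536-well plates (5 μl) holding NOMO1 or SEM (500 cells/well) or P12-Ichikawa (1000 cells/well) leukemia cells, across an 11-point threefold series of 47 μM to 0.79 nM. Each cell line had been adapted for at least four passages in each medium. CellTiter-Glo One luminescence was read after 48 h at 37°C. Viability is the per-plate percentage relative to DMSO wells, with cell-free wells as background.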

[1] = HPLM + 10% dialyzed FBS, 0.000781 µM
[2] = HPLM + 10% dialyzed FBS, 0.00234 µM
[3] = HPLM + 10% dialyzed FBS, 0.00702 µM
[4] = HPLM + 10% dialyzed FBS, 0.0211 µM
[5] = HPLM + 10% dialyzed FBS, 0.0632 µM
[6] = HPLM + 10% dialyzed FBS, 0.19 µM
[7] = HPLM + 10% dialyzed FBS, 0.569 µM
[8] = HPLM + 10% dialyzed FBS, 1.71 µM
[9] = HPLM + 10% dialyzed FBS, 5.12 µM
[10] = HPLM + 10% dialyzed FBS, 15.4 µM
[11] = HPLM + 10% dialyzed FBS, 46.1 µM
[12] = RPMI 5 mM glucose + 10% FBS, 0.000781 µM
[13] = RPMI 5 mM glucose + 10% FBS, 0.00234 µM
[14] = RPMI 5 mM glucose + 10% FBS, 0.00702 µM
[15] = RPMI 5 mM glucose + 10% FBS, 0.0211 µM
[16] = RPMI 5 mM glucose + 10% FBS, 0.0632 µM
[17] = RPMI 5 mM glucose + 10% FBS, 0.19 µM
[18] = RPMI 5 mM glucose + 10% FBS, 0.569 µM
[19] = RPMI 5 mM glucose + 10% FBS, 1.71 µM
[20] = RPMI 5 mM glucose + 10% FBS, 5.12 µM
[21] = RPMI 5 mM glucose + 10% FBS, 15.4 µM
[22] = RPMI 5 mM glucose + 10% FBS, 46.1 µM
[23] = RPMI 5 mM glucose + 10% dialyzed FBS, 0.000781 µM
[24] = RPMI 5 mM glucose + 10% dialyzed FBS, 0.00234 µM
[25] = RPMI 5 mM glucose + 10% dialyzed FBS, 0.00702 µM
[26] = RPMI 5 mM glucose + 10% dialyzed FBS, 0.0211 µM
[27] = RPMI 5 mM glucose + 10% dialyzed FBS, 0.0632 µM
[28] = RPMI 5 mM glucose + 10% dialyzed FBS, 0.19 µM
[29] = RPMI 5 mM glucose + 10% dialyzed FBS, 0.569 µM
[30] = RPMI 5 mM glucose + 10% dialyzed FBS, 1.71 µM
[31] = RPMI 5 mM glucose + 10% dialyzed FBS, 5.12 µM
[32] = RPMI 5 mM glucose + 10% dialyzed FBS, 15.4 µM
[33] = RPMI 5 mM glucose + 10% dialyzed FBS, 46.1 µM

| SMILES | cell viability [1] | cell viability [2] | cell viability [3] | cell viability [4] | cell viability [5] | cell viability [6] | cell viability [7] | cell viability [8] | cell viability [9] | cell viability [10] | cell viability [11] | cell viability [12] | cell viability [13] | cell viability [14] | cell viability [15] | cell viability [16] | cell viability [17] | cell viability [18] | cell viability [19] | cell viability [20] | cell viability [21] | cell viability [22] | cell viability [23] | cell viability [24] | cell viability [25] | cell viability [26] | cell viability [27] | cell viability [28] | cell viability [29] | cell viability [30] | cell viability [31] | cell viability [32] | cell viability [33] |
| --- | --- | --- | --- | --- | --- | --- | --- | --- | --- | --- | --- | --- | --- | --- | --- | --- | --- | --- | --- | --- | --- | --- | --- | --- | --- | --- | --- | --- | --- | --- | --- | --- | --- |
| Nc1cc(C(F)(F)F)c(-c2cc(N3CCOCC3)nc(N3CCOCC3)n2)cn1 | 118% | 121% | 99% | 113% | 113% | 88.5% | 72.2% | 43.4% | 14% | 6.54% | 5.09% | 88.9% | 89.2% | 88.1% | 102% | 90% | 64.2% | 75.6% | 27.4% | 6.68% | 3.92% | 2.34% | 113% | 131% | 121% | 123% | 118% | 91.1% | 74.1% | 37.6% | 14.6% | 5.59% | 3.9% |
| CC/1=C(/C(CC(=O)N1)C2=CC=C(C=C2)C(F)(F)F)C(=O)NC3=C(F)C=C4[NH]N=CC4=C3 (configuration not stated) | 81.9% | 94.4% | 92.3% | 104% | 91.8% | 89.4% | 95.9% | 89.3% | 114% | 29.9% | 26.5% | 102% | 101% | 94.2% | 94.7% | 84.3% | 92.8% | 108% | 92% | 108% | 31.9% | 31.8% | 97.9% | 80.9% | 102% | 84% | 96.8% | 97.1% | 100% | 96.7% | 109% | 28.2% | 32% |
| Oc1cccc(-c2nc(N3CCOCC3)c3oc4ncccc4c3n2)c1 | 108% | 96.3% | 102% | 99.1% | 92.6% | 80.7% | 54.8% | 54.5% | 61.5% | 57.3% | 5.23% | 102% | 102% | 120% | 106% | 93.3% | 77.9% | 58.4% | 60.9% | 8.23% | 6.63% | 4.34% |  |  |  |  |  |  |  |  |  |  |  |
| C[C@]12CC[C@H]3[C@@H](CCC/4=C/C(=O)CC[C@]34C)[C@@H]1CC[C@@H]2O | 94.2% | 120% | 124% | 128% | 118% | 139% | 122% | 120% | 136% | 125% | 130% | 107% | 110% | 118% | 112% | 139% | 129% | 118% | 133% | 140% | 157% | 109% | 129% | 113% | 120% | 121% | 112% | 130% | 153% | 134% | 130% | 131% | 145% |
| C[C@]12CC[C@@H]3c4ccc(O)cc4CC[C@H]3[C@@H]1C[C@@H](O)[C@@H]2O | 105% | 116% | 108% | 119% | 113% | 121% | 113% | 116% | 113% | 105% | 91.3% | 86.9% | 83.6% | 97.3% | 95.6% | 91.5% | 89.3% | 91.8% | 79.7% | 90.9% | 82.6% | 66.4% | 127% | 120% | 114% | 128% | 129% | 115% | 126% | 106% | 112% | 116% | 92.4% |
| Cc1cnc(C(=O)O)c[n+]1[O-] |  |  |  |  |  |  |  |  |  |  |  | 77.1% | 88.9% | 81% | 87% | 85.7% | 92.1% | 101% | 87.3% | 99.5% | 87.8% | 72.6% | 121% | 118% | 92.7% | 112% | 135% | 126% | 133% | 128% | 120% | 114% | 99.3% |
| CN1CCCC(CC1)N2\N=C(CC3=CC=C(Cl)C=C3)/C4=C(C=CC=C4)C2=O (configuration not stated) | 92.9% | 110% | 104% | 114% | 110% | 112% | 99.1% | 106% | 111% | 101% | 74.9% | 72.4% | 78.3% | 71.9% | 79.5% | 81.8% | 94.8% | 90.2% | 98.9% | 83.8% | 80.6% | 73.1% | 91.7% | 108% | 96.2% | 102% | 112% | 105% | 108% | 121% | 96.5% | 109% | 97.6% |
| Cc1ccc([S+](=O)([O-])Nc2nc3ccccc3nc2Nc2ccc3nsnc3c2)cc1 | 81.7% | 90.3% | 99.9% | 88.2% | 92.6% | 93.5% | 87.8% | 90.5% | 78.6% | 73.5% | 59.1% | 102% | 100% | 102% | 112% | 107% | 101% | 97.8% | 105% | 78.7% | 81.3% | 54.9% | 95% | 87.9% | 84.8% | 96% | 88.2% | 84.4% | 89.7% | 96.4% | 83.2% | 61.8% | 65.8% |
